Measurements taken from patent US20210267900A1, “PROCESSING METHOD FOR DRUG SUBSTANCE PARTICLES OF NON-UNIFORM PARTICLE SIZE” (NIPPON ZOKI PHARMACEUTICAL CO., LTD., priority 2018, published 2021).
Several values for one entry are separate records, joined by “and”; a condition that tells them apart may be missing. Equal entries are not always repeated.

What was measured:
[1] = Particle size distribution by laser-diffraction method (Mastersizer 2000); format: physicochemical; settings: drug substance before processing
Source text: (§1) In the present invention, the particle size distribution of each of the drug substance (A) and the powder (B) can be determined by a weight-based distribution evaluation by a sieving method (measurement device: a ro-tap-type sieve shaker or the like) and a volume-based distribution evaluation by a laser-diffraction method (also referred to as “a laser diffraction scattering method”) (measurement device: Mastersizer 2000 or Mastersizer 3000 [Malvern] or the like, dispersion compression air pressure: 2 to 4 bars).

[2] = Particle size distribution by sieving method (ro-tap-type sieve shaker); format: physicochemical; settings: drug substance before processing, % by weight
Source text: as §1

With `CC(=O)Nc1ccc(O)cc1` [Acetaminophen, acetaminophen] the “particles each having a particle size of 50 μm or less” value [1] was 25.11 % by volume and 21.08 % by volume, the “particles each having a particle size of 500 μm or more” value [1] was 3.57 % by volume and 5.82 % by volume and the “particles each having a particle size of 60 μm or less” value [2] was 32.9%. The “particles each having a particle size of 500 μm or more” value [2] was 14%.

In the case of `CC(C)Cc1ccc(C(C)C(=O)O)cc1` (stereo not shown) [Ibuprofen, ibuprofen], the “particles each having a particle size of 60 μm or less” value [2] is reported as 27.2% and the “particles each having a particle size of 500 μm or more” value [2] is reported as 11%.

With `CC(C)C[C@H](CN)CC(=O)O` [Pregabalin, pregabalin] the “particles each having a particle size of 60 μm or less” value [2] was 14.5%.
